≈ marks a conversion by molar mass, not a printed value.
How the values were obtained:
Format in all cases: functional
Staphylococcus aureus [1] = test: Antibacterial activity against Staphylococcus aureus ATCC 29213 assessed growth inhibition by micro broth dilution method
Staphylococcus aureus [2] = test: Antibacterial activity against methicillin-resistant Staphylococcus aureus assessed growth inhibition by micro broth dilution method
Pseudomonas aeruginosa [3] = test: Antibacterial activity against Pseudomonas aeruginosa ATCC 27853 assessed growth inhibition by micro broth dilution method
Staphylococcus aureus [4] = test: Antibacterial activity against Staphylococcus aureus ATCC 25923 assessed growth inhibition by micro broth dilution method
Pseudomonas aeruginosa [5] = test: Antibacterial activity against Pseudomonas aeruginosa assessed growth inhibition by micro broth dilution method
Klebsiella pneumoniae = test: Antibacterial activity against Klebsiella pneumonia assessed growth inhibition by micro broth dilution method
Escherichia coli [6] = test: Antibacterial activity against Escherichia coli ATCC 25922 assessed growth inhibition by micro broth dilution method
Staphylococcus aureus [7] = test: Antibacterial activity against Staphylococcus aureus assessed growth inhibition by micro broth dilution method
Enterococcus faecalis = test: Antibacterial activity against Enterococcus faecalis assessed growth inhibition by micro broth dilution method
Escherichia coli [8] = test: Antibacterial activity against Escherichia coli assessed growth inhibition by micro broth dilution method
Acinetobacter baumannii = test: Antibacterial activity against Acinetobacter baumannii assessed growth inhibition by micro broth dilution method

Structure (SMILES)	MIC (Staphylococcus aureus [1]) [µg/mL]	MIC (Staphylococcus aureus [2]) [µg/mL]	MIC (Pseudomonas aeruginosa [3]) [µg/mL]	MIC (Staphylococcus aureus [4]) [µg/mL]	MIC (Pseudomonas aeruginosa [5]) [µg/mL]	MIC (Klebsiella pneumoniae) [µg/mL]	MIC (Escherichia coli [6]) [µg/mL]	MIC (Staphylococcus aureus [7]) [µg/mL]	MIC (Enterococcus faecalis) [µg/mL]	MIC (Escherichia coli [8]) [µg/mL]	MIC (Acinetobacter baumannii) [µg/mL]
CCOC(=O)c1cn(CC)c2cc(F)c(F)cc2c1=O	128 (≈ 455 µM)	256 (≈ 910 µM)	256 (≈ 910 µM)	256 (≈ 910 µM)	64 (≈ 228 µM)	64 (≈ 228 µM)	64 (≈ 228 µM)	32 (≈ 114 µM)	128 (≈ 455 µM)	16 (≈ 56.9 µM)	256 (≈ 910 µM)
CCOC(=O)c1cn(Cc2ccccc2)c2cc(F)c(F)cc2c1=O	256 (≈ 746 µM)	256 (≈ 746 µM)	256 (≈ 746 µM)	256 (≈ 746 µM)	256 (≈ 746 µM)	256 (≈ 746 µM)	128 (≈ 373 µM)	128 (≈ 373 µM)	128 (≈ 373 µM)	2 (≈ 5.83 µM)	2 (≈ 5.83 µM)
CCOC(=O)c1cn(Cc2ccc(F)cc2F)c2cc([C-](C#N)C(=O)OCC)c(F)cc2c1=O.[Na+] (configuration not stated)	4	64	2	0.5	64	4	2	128	8	1	32
CCCCCCCCCCCCn1cc(C(=O)OCC)c(=O)c2cc(F)c(F)cc21	32 (≈ 75.9 µM)	256 (≈ 607 µM)	256 (≈ 607 µM)	128 (≈ 304 µM)	64 (≈ 152 µM)	16 (≈ 38 µM)	64 (≈ 152 µM)	32 (≈ 75.9 µM)	64 (≈ 152 µM)	16 (≈ 38 µM)	64 (≈ 152 µM)
CCOC(=O)C(C#N)c1cc2c(cc1F)c(=O)c(C(=O)O)cn2Cc1ccc(Cl)cc1Cl (configuration not stated)	2 (≈ 4.19 µM)	2 (≈ 4.19 µM)	2 (≈ 4.19 µM)	1 (≈ 2.1 µM)	4 (≈ 8.38 µM)	0.25 (≈ 0.524 µM)	0.5 (≈ 1.05 µM)	1 (≈ 2.1 µM)	8 (≈ 16.8 µM)	16 (≈ 33.5 µM)	1 (≈ 2.1 µM)
CCOC(=O)c1cn(Cc2ccc([N+](=O)[O-])cc2)c2cc(F)c(F)cc2c1=O	256 (≈ 659 µM)	256 (≈ 659 µM)	256 (≈ 659 µM)	256 (≈ 659 µM)	256 (≈ 659 µM)	256 (≈ 659 µM)	128 (≈ 330 µM)	128 (≈ 330 µM)	256 (≈ 659 µM)	2 (≈ 5.15 µM)	16 (≈ 41.2 µM)
CCOC(=O)c1cn(CC2CCCCC2)c2cc(C(C#N)C(=O)OCC)c(F)cc2c1=O (configuration not stated)	4 (≈ 9.04 µM)	64 (≈ 145 µM)	1 (≈ 2.26 µM)	1 (≈ 2.26 µM)	1 (≈ 2.26 µM)	4 (≈ 9.04 µM)	0.5 (≈ 1.13 µM)	64 (≈ 145 µM)	16 (≈ 36.2 µM)	4 (≈ 9.04 µM)	4 (≈ 9.04 µM)

Reference: ChEMBL document CHEMBL5528028, “Discovery of benzopyridone cyanoacetates as new type of potential broad-spectrum antibacterial candidates” (Eur J Med Chem, 2024)
